Assay results as given in patent publication US10988474B2, “Compounds acting at multiple prostaglandin receptors giving a general anti-inflammatory response” (ALLERGAN, INC., priority 2011, dated 2021).

How the values were obtained:
Format in all cases: cell-based
[1] = biological target: T1, human prostanoid FP receptor (Homo sapiens, UniProt P43088); experiment: FLIPR Ca2+ signaling PG antagonist assay, FP stable cell line; conditions: HEK-293 EBNA cells, human recombinant FP, no exogenous G-protein; standard agonist 17-phenyl-PGF2α
T1 construct: expressed in transfected cells
Protocol: (§1) The above compounds were tested for PG antagonist activity as follows using human recombinant prostanoid receptor (DP1, EP1-4, FP, IP and TP) stable cell lines: In order to measure the response of Gs and Gi coupled prostanoid receptors as a Ca^2+ signal, chimeric G protein cDNAs were used. Stable cell lines over-expressing human prostanoid DP1, EP1-4, FP, IP, and TP receptors were established as follows:
(§2) Briefly, human prostanoid DP1, EP2, and EP4 receptor cDNAs were co-transfected with chimeric Gqs cDNA containing a haemagglutanin (HA) epitope; human prostanoid EP3 receptors were co-transfected with chimeric Gqi-HA; human EP1, FP, IP, and TP receptor cDNAs were expressed with no exogenous G-proteins. Gqs and Gqi chimeric cDNAs (Molecular Devices, Sunnyvale, Calif., U.S.A.), as well as cDNAs of prostanoid receptors, were cloned into a pCEP4 vector with a hygromycin B selection marker. Transfection into HEK-293 EBNA (Epstein-Barr virus nuclear antigen) cells was achieved by the FuGENE 6 transfection Reagent (Roche Applied Science, Indianapolis, Ind., USA). Stable transfectants were selected according to hygromycin resistance. Because Gqs and Gqi contained an HA epitope, G-protein expression was detected by Western blotting analysis using anti-mouse HA monoclonal antibody and horseradish peroxidase (HRP)-conjugated secondary antibody, while functional expression of prostanoid receptors was detected by FLIPR screening (Matias et al., 2004). These stable cell lines were validated using previously published antagonists at 10 μM against serial dilutions of standard agonists by FLIPR functional assays for Ca^2+ Signaling (as described below).
(§3) Ca^2+ signaling studies were performed using a FLIPR TETRA system (Molecular Devices, Sunnyvale, Calif., USA) in the 384-format. This is a high-throughput instrument for cell-based assays to monitor Ca^2+ signaling associated with GPCRs and ion channels. Cells were seeded at a density of 5×10^4 cells/well in BioCoat poly-D-lysine coated, black wall, clear bottom 384-well plates (BD Biosciences, Franklin lakes, NJ, USA) and allowed to attach overnight in an incubator at 37° C. The cells were then washed twice with HBSS-HEPES buffer (Hanks' balanced salt solution without bicarbonate and phenol red, 20 mM HEPES, pH 7.4) using an ELx405 Select CW Microplate Washer (BioTek, Winooski, Vt., USA). After 60 min of dye-loading in the dark using the Ca^2+-sensitive dye Fluo-4AM (Invitrogen, Carlsbad, Calif., USA), at a final concentration of 2×10^−6M, the plates were washed 4 times with HBSS-HEPES buffer to remove excess dye and leaving 50 μl of buffer in each well. The plates were then placed in the FLIPR TETRA instrument and allowed to equilibrate at 37° C. Compounds were added in a 25 μl volume to each well to give final concentrations of 0.1 μM, 0.3 μM, 1 μM, 3 μM, 10 μM, and 30 μM; or 0.067 μM, 0.1 μM, 0.2 μM, 0.3 μM, 0.67 μM, and 1 μM for cells over-expressing TP receptors. After 4.5 minutes, a 7-point serial dilution of the standard agonist for the corresponding receptor, in a 25 μl volume was injected at the final concentrations from 10^−11M to 10^−5M in 10-fold serial dilution increments for cells expressing human recombinant DP1, EP1, EP2, EP3, EP4, FP, and IP receptors. The dose range for the standard agonist for human recombinant TP receptors was from 10^−12M to 10^−6M. HBSS-HEPES buffer was used as the negative control for the standard agonists. Cells were excited with LED (light emitting diode) excitation at 470-495 nm and emission was measured through an emission filter at 515-575 nm. Assay plates were read for 3.5 minutes using the FLIPR^TETRA. The peak increase in fluorescence intensity was recorded for each well. On each plate, negative controls, dose response of positive controls, and co-treatments of antagonist-agonist for each dose were in triplicates. Standard agonists were as follows: DP=BW 245C, EP1-EP4=PGE2, FP=17-phenyl-PGF2α, IP=Cicaprost, and TP=U-46619. […]

[2] = biological target: T2, human prostanoid DP1 receptor (Homo sapiens, UniProt Q13258); experiment: FLIPR Ca2+ signaling PG antagonist assay, DP1 stable cell line; conditions: HEK-293 EBNA cells, human recombinant DP1 with chimeric Gqs; standard agonist BW 245C; read-out: DP (Kb, PG antagonist activity)
T2 construct: expressed in transfected cells
T2 sequence (Q13258 1-359): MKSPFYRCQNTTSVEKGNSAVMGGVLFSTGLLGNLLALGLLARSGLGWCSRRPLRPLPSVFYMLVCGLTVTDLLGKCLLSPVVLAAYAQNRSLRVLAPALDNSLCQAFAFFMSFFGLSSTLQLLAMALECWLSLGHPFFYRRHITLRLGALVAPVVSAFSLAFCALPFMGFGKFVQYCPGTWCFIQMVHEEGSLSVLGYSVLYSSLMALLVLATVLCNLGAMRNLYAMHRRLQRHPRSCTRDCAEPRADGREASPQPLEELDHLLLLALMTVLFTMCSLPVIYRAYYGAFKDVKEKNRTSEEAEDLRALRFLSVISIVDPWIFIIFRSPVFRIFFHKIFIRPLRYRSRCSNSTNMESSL
Protocol: as §1, §2, §3

[3] = biological target: T3, human prostanoid EP1 receptor (Homo sapiens, UniProt P34995); experiment: FLIPR Ca2+ signaling PG antagonist assay, EP1 stable cell line; conditions: HEK-293 EBNA cells, human recombinant EP1, no exogenous G-protein; standard agonist PGE2
T3 construct: expressed in transfected cells
T3 sequence (P34995 1-402): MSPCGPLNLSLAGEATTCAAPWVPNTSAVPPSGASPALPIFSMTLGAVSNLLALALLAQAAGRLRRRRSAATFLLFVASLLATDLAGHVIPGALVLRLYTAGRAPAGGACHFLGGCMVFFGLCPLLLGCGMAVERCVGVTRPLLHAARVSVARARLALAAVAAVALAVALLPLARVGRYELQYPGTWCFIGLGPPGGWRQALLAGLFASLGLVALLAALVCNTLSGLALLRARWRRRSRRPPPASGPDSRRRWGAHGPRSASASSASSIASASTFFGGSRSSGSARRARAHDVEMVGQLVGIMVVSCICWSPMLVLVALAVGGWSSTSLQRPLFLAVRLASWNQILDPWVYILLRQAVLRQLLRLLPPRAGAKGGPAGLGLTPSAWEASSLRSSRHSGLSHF
Protocol: as §1, §2, §3

[4] = biological target: T4, human prostanoid EP2 receptor (Homo sapiens, UniProt P43116); experiment: FLIPR Ca2+ signaling PG antagonist assay, EP2 stable cell line; conditions: HEK-293 EBNA cells, human recombinant EP2 with chimeric Gqs; standard agonist PGE2
T4 construct: expressed in transfected cells
Protocol: as §1, §2, §3

[5] = biological target: T5, human prostanoid EP4 receptor (Homo sapiens, UniProt P35408); experiment: FLIPR Ca2+ signaling PG antagonist assay, EP4 stable cell line; conditions: HEK-293 EBNA cells, human recombinant EP4 with chimeric Gqs; standard agonist PGE2
T5 construct: expressed in transfected cells
Protocol: as §1, §2, §3

T1 sequence (P43088 whole entry): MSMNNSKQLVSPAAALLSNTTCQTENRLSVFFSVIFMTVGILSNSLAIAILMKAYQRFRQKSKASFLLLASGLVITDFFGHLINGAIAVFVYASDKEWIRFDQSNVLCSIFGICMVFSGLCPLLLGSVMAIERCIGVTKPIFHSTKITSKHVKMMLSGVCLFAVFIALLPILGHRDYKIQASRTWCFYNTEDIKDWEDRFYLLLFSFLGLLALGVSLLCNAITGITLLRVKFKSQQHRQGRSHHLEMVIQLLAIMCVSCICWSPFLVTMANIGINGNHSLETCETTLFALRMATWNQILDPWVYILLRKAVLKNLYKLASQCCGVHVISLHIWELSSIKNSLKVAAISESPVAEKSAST
T5 sequence (P35408 whole entry): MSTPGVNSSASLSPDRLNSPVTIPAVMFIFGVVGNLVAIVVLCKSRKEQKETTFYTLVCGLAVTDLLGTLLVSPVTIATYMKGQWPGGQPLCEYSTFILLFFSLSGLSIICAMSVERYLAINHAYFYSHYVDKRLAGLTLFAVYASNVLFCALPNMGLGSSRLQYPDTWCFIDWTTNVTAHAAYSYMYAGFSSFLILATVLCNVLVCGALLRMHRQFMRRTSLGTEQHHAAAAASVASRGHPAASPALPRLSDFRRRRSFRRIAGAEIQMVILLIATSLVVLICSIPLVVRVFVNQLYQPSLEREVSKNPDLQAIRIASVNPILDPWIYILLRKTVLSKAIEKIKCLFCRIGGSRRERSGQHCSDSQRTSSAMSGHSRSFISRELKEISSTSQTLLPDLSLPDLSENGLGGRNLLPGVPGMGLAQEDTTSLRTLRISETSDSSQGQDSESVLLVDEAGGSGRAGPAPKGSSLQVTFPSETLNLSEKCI
T4 sequence (P43116 whole entry): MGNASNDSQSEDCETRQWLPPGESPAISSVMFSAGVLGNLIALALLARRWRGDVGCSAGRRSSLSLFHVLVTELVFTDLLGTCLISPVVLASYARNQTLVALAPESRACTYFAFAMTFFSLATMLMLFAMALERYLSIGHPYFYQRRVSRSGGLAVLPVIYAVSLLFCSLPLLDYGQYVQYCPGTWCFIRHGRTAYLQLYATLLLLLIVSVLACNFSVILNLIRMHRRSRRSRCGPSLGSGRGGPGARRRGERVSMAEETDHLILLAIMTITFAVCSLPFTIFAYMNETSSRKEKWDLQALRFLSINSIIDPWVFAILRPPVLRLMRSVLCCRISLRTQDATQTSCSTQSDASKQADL

Compound | Kb [1] [nM] | Kb [2] [nM] | Kb [3] [nM] | Kb [4] [nM] | Kb [5] [nM]
Cc1nn(Cc2cc(OC(F)(F)F)ccc2OCC(C)C)c2ccc(C(=O)O)cc12 [Example 22, 1-(2-Isobutoxy-5-Trifluoromethoxy-Benzyl)-3-Methyl-1H-Indazole-5-Carboxylic Acid] | 140 | 1700 | 16 | ≥ 10000 | 350
CCC(CC)COc1ccc(Cl)cc1Cn1nc(C)c2cc(C(=O)O)ccc21 [Example 23, 1-[5-Chloro-2-(2-Ethyl-Butoxy)-Benzyl]-3-Methyl-1H-Indazole-5-Carboxylic Acid] | 170 | 900 | 30 | 7100 | 50
Cc1nn(Cc2cc(Cl)ccc2OCC(C)C)c2ccc(C(=O)O)cc12 [Example 24, 1-(5-Chloro-2-Isobutoxy-Benzyl)-3-Methyl-1H-Indazole-5-Carboxylic Acid] | 40 | 160 | 20 | 4500 | 150
Cc1nn(Cc2cc(C(F)(F)F)ccc2OCC(C)C)c2ccc(C(=O)O)cc12 [Example 25, 1-(2-Isobutoxy-5-Trifluoromethyl-Benzyl)-3-Methyl-1H-Indazole-5-Carboxylic Acid] | 180 | 220 | 27 | 9300 | 160
CCC(CC)COc1ccc(C(F)(F)F)cc1Cn1nc(C)c2cc(C(=O)O)ccc21 [Example 26, 1-[2-(2-Ethyl-Butoxy)-5-Trifluoromethyl-Benzyl]-3-Methyl-1H-Indazole-5-Carboxylic Acid] | 500 | 1700 | 80 | ≥ 10000 | 70
CCC(CC)COc1ccc(Br)cc1Cn1nc(C)c2cc(C(=O)O)ccc21 [Example 27, 1-[5-Bromo-2-(2-Ethyl-Butoxy)-Benzyl]-3-Methyl-1H-Indazole-5-Carboxylic Acid] | 200 | 1600 | 110 | 3640 | 53
Cc1nn(Cc2cc(Br)ccc2OCC2(C)CC2)c2ccc(C(=O)O)cc12 [Example 28, 1-[5-Bromo-2-(1-Methyl-Cyclopropylmethoxy)-Benzyl]-3-Methyl-1H-Indazole-5-Carboxylic Acid] | 70 | 730 | 43 | 9200 | 40
O=C(O)c1ccc2c(cnn2Cc2cc(C(F)(F)F)ccc2OCc2ccc(Cl)cc2)c1 [Example 32, 1-[2-(4-Chloro-Benzyloxy)-5-Trifluoromethyl-Benzyl]-1H-Indazole-5-Carboxylic Acid] | 50 | 1700 | 210 | ≥ 10000 | 5000
O=C(O)c1ccc2c(cnn2Cc2cc(C(F)(F)F)ccc2OCC2CCCC2)c1 [Example 33, 1-(2-Cyclopentylmethoxy-5-Trifluoromethyl-Benzyl)-1H-Indazole-5-Carboxylic Acid] | 70 | 350 | 70 | 2600 | 30
O=C(O)c1cccc2c1cnn2Cc1cc(Cl)ccc1OCC1CC1 [Example 34, 1-(5-Chloro-2-Cyclopropylmethoxy-Benzyl)-1H-Indazole-4-Carboxylic Acid] | 3200 | 5400 | 70 | ≥ 10000 | ≥ 10000
O=C(O)c1cccc2nn(Cc3cc(Cl)ccc3OCC3CC3)cc12 [Example 35, 2-(5-Chloro-2-Cyclopropylmethoxy-Benzyl)-2H-Indazole-4-Carboxylic Acid] | 4300 | 1900 | 4200 | ≥ 10000 | 670
CC(C)COc1ccc(Cl)cc1Cn1ncc2c(C(=O)O)cccc21 [Example 36, 1-(5-Chloro-2-Isobutoxy-Benzyl)-1H-Indazole-4-Carboxylic Acid] | 580 | 1100 | 60 | 2900 | 1200
CC(C)COc1ccc(Cl)cc1Cn1cc2c(C(=O)O)cccc2n1 [Example 37, 2-(5-Chloro-2-Isobutoxy-Benzyl)-2H-Indazole-4-Carboxylic Acid] | ≥ 10000 | 1300 | 480 | ≥ 10000 | 700
CCC(CC)COc1ccc(Cl)cc1Cn1ncc2c(C(=O)O)cccc21 [Example 38, 1-[5-Chloro-2-(2-Ethyl-Butoxy)-Benzyl]-1H-Indazole-4-Carboxylic Acid] | 1100 | 630 | 70 | 2100 | 400
CCC(CC)COc1ccc(Cl)cc1Cn1cc2c(C(=O)O)cccc2n1 [Example 39, 2-[5-Chloro-2-(2-Ethyl-Butoxy)-Benzyl]-2H-Indazole-4-Carboxylic Acid] | ≥ 10000 | 1000 | 1200 | ≥ 10000 | 1600
O=C(O)c1cccc2c1cnn2Cc1cc(Cl)ccc1OCc1ccc(Cl)cc1 [Example 40, 1-[5-Chloro-2-(4-Chloro-Benzyloxy)-Benzyl]-1H-Indazole-4-Carboxylic Acid] | 270 | 1000 | 60 | 900 | 2500
O=C(O)c1cccc2nn(Cc3cc(Cl)ccc3OCc3ccc(Cl)cc3)cc12 [Example 41, 2-[5-Chloro-2-(4-Chloro-Benzyloxy)-Benzyl]-2H-Indazole-4-Carboxylic Acid] | ≥ 10000 | 4700 | ≥ 10000 | ≥ 10000 | ≥ 10000
